The assay relates to contractile response to angiotensin II in excised guinea pig ileum. Description: Inhibition by the antagonist of contractile response to angiotensin II in excised guinea pig ileum. Conditions: excised guinea pig ileum longitudinal strips; angiotensin II 10^-8 g/ml; test compound added 3 minutes prior; atropine present; 37° C.; read-out: IC50 (inhibition of angiotensin II contraction, percentage change to control response). The procedure: [2] Inhibition by the antagonist of contractile response to angiotensin II in excised guinea pig ileum
Male guinea pigs weighing 300 g to 500 g were sacrificed by decapitation and the ileum were excised. Longitudial strips of the ileum (length: 2 cm) were placed in a 25 ml organ bath containing Tyrode's solution of the following composition (mM): NaCl, 137; KCl, 2.7; CaCl2, 1.8; MgCl2, 1.1; NaH2 PO4, 0.4; NaHCO3, 12; Glucose, 5.6.
The bath was maintained at 37° C. and bubbled with 95% O2 +5% CO2. The strips was stretched with a resting force of 0.5 g, and the isometric contraction were recorded via force development transducer on an ink-writing recorder. The preparation was equilibrated in Tyrode's solution mentioned above for 30 minutes, and then exposed to atropine (3.2×10^-7 g/ml) Five minutes later, the response for angiotensin II (1×10^-8 g/ml) was obtained and the preparation was washed a few times. This procedure was repeated twice. […] The inhibition of the test compound for angiotensin II contraction were expressed as a percentage change to control response, and IC50 (M) was calculated.

The values that follow come from patent publication US5215994A, “Angiotenin II antagonizing heterocyclic derivatives” (Fujisawa Pharmaceutical Co., Ltd., priority 1990, dated 1993).

The structures appear in SMILES notation.

The IC50 is the point on the concentration scale where inhibition reaches its midpoint.

For `CCCCc1nc2c(C)ccnc2n1Cc1ccc(-n2cc(Br)cc2-c2nnn[nH]2)cc1` [Compound 1, 3-[4-[4-Bromo-2-(1H-tetrazol-5-yl)-1-pyrrolyl]benzyl]-2-butyl-7-methyl-3H-imidazo[4,5-b]pyridine], the IC50 amounted to 1.7 nM.
